Assay results as given in article PMC4552634, “A New Set of Chemical Starting Points with Plasmodium falciparum Transmission-Blocking Potential for Antimalarial Drug Discovery” (PLoS ONE, 2015).

test system: P. falciparum stage V gametocytes; assay: microbe, parasite or virus in culture; parameters: BacTiter-Glo ATP luminescence viability of purified stage V gametocytes in 384-well plates, per cent inhibition versus DMSO; conditions: Plasmodium falciparum, 48 h, read-out: % Inhibition

In order of rising inhibition at 5 µM:
1. Cc1cc(NN=Cc2ccc(F)cc2)c2ccc(C(F)(F)F)cc2n1 [TCMDC-142159]  -183%
2. COc1ccc(C=NNc2c3ccccc3nc3ccccc23)c2ccccc12 [TCMDC-142231]  -139%
3. CCN(CC)CC(O)c1cc(-c2ccc(C)cc2)nc2c(C)cc(C)cc12 (stereo not drawn) [TCMDC-142229]  -117%
4. COc1ccc(C=NNc2ccnc3ccccc23)c2ccccc12 [TCMDC-142215]  -96.9%
5. Cc1cc(NN=Cc2ccccc2Cl)c2cc(C(F)(F)F)ccc2n1 [TCMDC-142154]  -77.2%
6. Cc1cc(NN=Cc2ccc(F)cc2)c2cc(C(F)(F)F)ccc2n1 [TCMDC-142158]  -75.7%
7. Fc1cccc(C=NNc2ccnc3ccc(C(F)(F)F)cc23)c1 [TCMDC-142151]  -62.1%
8. Cc1cc(NN=Cc2cccc(F)c2)c2cc(F)ccc2n1 [TCMDC-142173]  -60.6%
9. Cc1cc(NN=Cc2cccc(Cl)c2)c2cc(F)ccc2n1 [TCMDC-142164]  -59.6%
10. O=[N+]([O-])c1ccccc1C=NNc1c2c(nc3ccccc13)CCCC2 [TCMDC-142202]  -53.6%
11. Cc1cc(NN=Cc2ccccc2F)c2cc(F)ccc2n1 [TCMDC-142171]  -53.4%
12. Cc1cc(NN=Cc2ccccc2Cl)c2ccc(F)cc2n1 [TCMDC-142162]  -52.4%
13. Cc1cc(NN=Cc2ccc(F)cc2)c2cc(F)ccc2n1 [TCMDC-142172]  -47.2%
14. Cc1cc(N/N=C/c2ccccc2[N+](=O)[O-])c2ccc(F)cc2n1 [TCMDC-142168]  -45.1%
15. FC(F)(F)c1ccc2c(NN=Cc3cccc(Cl)c3)ccnc2c1 [TCMDC-142149]  -44.9%
16. Cc1cc(NN=CC=Cc2ccccc2)c2cc(F)ccc2n1 [TCMDC-142177]  -42.3%
17. Cc1cc(NN=Cc2ccc(Cl)cc2)c2ccc(F)cc2n1 [TCMDC-142160]  -41.4%
18. Cc1cc(NN=Cc2ccccc2Cl)c2cc(F)ccc2n1 [TCMDC-142165]  -39.2%
19. Cc1cc(NN=Cc2cccc(F)c2)c2ccc(F)cc2n1 [TCMDC-142174]  -36.6%
20. Cc1cc(N/N=C/c2ccccc2[N+](=O)[O-])c2cc(F)ccc2n1 [TCMDC-142167]  -36.5%
21. Cc1cc(NN=Cc2cccc(Cl)c2)c2ccc(F)cc2n1 [TCMDC-142161]  -34%
22. CCCCNC(c1ccc(Cl)cc1)C(O)c1ccc(Cl)cc1 (stereo not drawn) [TCMDC-142227]  -29.7%
23. COc1ccc(C=NNc2cc(C)nc3c(C)cccc23)c2ccccc12 [TCMDC-142216]  -26.1%
24. COc1cccc2c(NN=Cc3ccccc3F)ccnc12 [TCMDC-142181]  -26%
25. COc1ccc2nc(C)cc(NN=Cc3cc(OC)c(OC)cc3OC)c2c1 [TCMDC-142199]  -26%
26. FC(F)(F)c1ccc2nccc(NN=CC=Cc3ccccc3)c2c1 [TCMDC-142153]  -25.7%
27. FC(F)(F)c1ccc2nccc(NN=Cc3ccccc3Cl)c2c1 [TCMDC-142147]  -24.8%
28. Cc1cc(NN=CC=Cc2ccccc2)c2ccc(F)cc2n1 [TCMDC-142176]  -23.9%
29. Cc1cc(N/N=C/c2cccc([N+](=O)[O-])c2)c2cc(F)ccc2n1 [TCMDC-142166]  -21.6%
30. CCNc1c2ccc(Cl)cc2nc2ccc(OC)cc12 [TCMDC-142190]  -21.5%
31. CC1(C)N=C(N)N=C(N)N1c1ccc2ccccc2c1 [TCMDC-142179]  -17.5%
32. Cc1cc(NN=Cc2ccccc2)c2cc(F)ccc2n1 [TCMDC-142175]  -16.9%
33. COc1cccc(C=NNc2cc(C)nc3ccccc23)c1 [TCMDC-142183]  -15.9%
34. Fc1ccc(C=NNc2ccnc3ccc(C(F)(F)F)cc23)cc1 [TCMDC-142152]  -15.6%
35. CC(C)(C)CC(C)(C)c1ccc(O)c(C(=O)Nc2ccc([N+](=O)[O-])cc2)c1 [TCMDC-142211]  -13%
36. CCN(CC)CC(O)c1cc(-c2ccc(OC)cc2)nc2cc(Cl)ccc12 (stereo not drawn) [TCMDC-142222]  -13%
37. COc1ccc(C=NNc2ccnc3cc(F)c(C)cc23)c2ccccc12 [TCMDC-142235]  -8.9%
38. CCCCCCCCNCC(O)c1cc(-c2ccc(Cl)cc2)nc2cc(C)ccc12 (stereo not drawn) [TCMDC-142223]  -7.88%
39. CCOc1ccc2c(NN=Cc3cccc(F)c3)cc(C)nc2c1 [TCMDC-142194]  -6.63%
40. COc1ccc(C=NNc2cc(C)nc3ccccc23)cc1OC [TCMDC-142184]  -5.19%
41. Cc1cc(NN=Cc2ccc(Cl)cc2)c2cc(C(F)(F)F)ccc2n1 [TCMDC-142155]  -3.11%
42. CCOc1ccc2c(NN=Cc3cccc(Cl)c3)cc(C)nc2c1 [TCMDC-142192]  -2.16%
43. CCCCCCCCNc1c2ccc(Cl)cc2nc2ccc(OC)cc12 [TCMDC-142191]  0.773%
44. N=C(N)c1ccc(/C=C/c2ccc(C(=N)N)cc2O)cc1 [TCMDC-142178]  1.54%
45. COc1ccc(OC)c2c1CC1NCC2c2c(OC)ccc(OC)c21 (stereo not drawn) [TCMDC-142224]  2.64%
46. Cc1cc(N/N=C/c2ccccc2[N+](=O)[O-])c2cc(C(F)(F)F)ccc2n1 [TCMDC-142157]  4.83%
47. O=[N+]([O-])c1cccc(/C=N/Nc2ccnc3ccc(C(F)(F)F)cc23)c1 [TCMDC-142150]  7.31%
48. CC(C)(C)CC(C)(C)c1ccc(O)c(C(=O)Nc2cccc([N+](=O)[O-])c2)c1 [TCMDC-142210]  8.52%
49. CCN(Cc1ccccc1)CC(O)c1ccc(Cl)c(Cl)c1 (stereo not drawn) [TCMDC-142226]  14.8%
50. CCCCCCCCNCC(O)c1ccc(Cl)c(Cl)c1 (stereo not drawn) [TCMDC-142225]  17.7%
51. CCOc1ccc2c(NN=Cc3ccccn3)cc(C)nc2c1 [TCMDC-142187]  20.9%
52. Cc1cc2nc(-c3cc(Br)ccc3O)c(-c3cc(Br)ccc3O)nc2cc1C [TCMDC-142220]  24.2%
53. N=C(N)c1cccc(OCCCOc2cccc(NC(=O)Nc3ccc([N+](=O)[O-])cc3)c2)c1 [TCMDC-142189]  24.9%
54. Cc1c(N=O)cc(C(C)(C)C)c(O)c1C(=O)Nc1ccc([N+](=O)[O-])cc1Cl [TCMDC-142233]  32.7%
55. COc1ccc2ccccc2c1C=NNc1cc(C)nc2c(C)cccc12 [TCMDC-142234]  35.2%
56. CC(C)(C)c1cc(Cl)cc(C(=O)Nc2cc([N+](=O)[O-])ccc2Cl)c1O [TCMDC-142214]  36.2%
57. CN(C)c1ccc(C=Cc2ccc3ccccc3n2)c(Cl)c1 [TCMDC-142212]  36.3%
58. OC(c1cc(C(F)(F)F)nc2c(F)cccc12)C1CCCCN1 (stereo not drawn) [TCMDC-142228]  37.8%
59. Cc1ccc2c(c1[N+](=O)[O-])N=NCC2Oc1ccccc1 (stereo not drawn) [TCMDC-142213]  38.1%
60. CCOc1ccc2c(NN=Cc3cccc(OC)c3OC)cc(C)nc2c1 [TCMDC-142205]  40.8%
61. N#Cc1ccc(S(=O)(=O)N2C(c3cccc([N+](=O)[O-])c3)C(C(=O)c3ccccc3)N(C3CCCCC3)C2c2cccc([N+](=O)[O-])c2)cc1 (stereo not drawn) [TCMDC-142230]  43.9%
62. FC(F)(F)c1ccc2nccc(NN=Cc3cccc(Cl)c3)c2c1 [TCMDC-142148]  56%
63. Cc1cc(NN=Cc2ccc(Cl)cc2)c2cc(F)ccc2n1 [TCMDC-142163]  56.5%
64. CC1(C)N=C(N)N=C(N)N1c1ccc(Cl)c(Cl)c1 [TCMDC-142180]  61.6%
65. CCCCCC(C)C(C)c1cc(O)c2c3c(c(=O)oc2c1)CN(Cc1ccccc1)CC3 (stereo not drawn) [TCMDC-142182]  75.7%
66. CC(C)NCC(O)COc1ccc(Cc2ccc(OCC(O)CNC(C)C)cc2)cc1 (stereo not drawn) [TCMDC-142221]  77%
67. CCOc1ccc2c(NN=Cc3cccc(OC)c3)cc(C)nc2c1 [TCMDC-142204]  80.8%
68. Oc1ccc(Br)cc1-c1nc2ccc(Cl)cc2nc1-c1cc(Br)ccc1O [TCMDC-142219]  82.4%
69. COc1cc(C=NNc2cc(C)nc3c(OC)cccc23)cc(OC)c1OC [TCMDC-142200]  84.3%
70. CCn1c2ccccc2c2cc(C=NNc3cc(C)nc4ccccc34)ccc21 [TCMDC-142186]  85.3%
71. CCOc1ccc2c(NN=Cc3ccccc3OC)cc(C)nc2c1 [TCMDC-142203]  87.4%
72. COc1cccc(C=NNc2cc(C)nc3c(OC)cccc23)c1 [TCMDC-142197]  92.7%
73. COc1ccc(C=NNc2cc(C)nc3ccccc23)c2ccccc12 [TCMDC-142185]  93.9%
74. CCOc1ccc2c(NN=Cc3ccc(OC)c(OC)c3)cc(C)nc2c1 [TCMDC-142206]  95.7%
75. CCOc1ccc2c(NN=Cc3ccccc3F)cc(C)nc2c1 [TCMDC-142193]  98.2%
76. COc1ccc(C=NNc2cc(C)nc3ccccc23)c(OC)c1 [TCMDC-142196]  98.4%
77. COc1cc(OC)c(OC)cc1C=NNc1cc(C)nc2ccccc12 [TCMDC-142198]  100%
78. CCOc1ccc2c(NN=Cc3cc(OC)c(OC)cc3OC)cc(C)nc2c1 [TCMDC-142207]  101%
79. CCOc1ccc2c(NN=Cc3cc(OC)c(OC)c(OC)c3)cc(C)nc2c1 [TCMDC-142208]  101%
80. COc1ccc(C=NNc2cc(C)nc3ccc(C)cc23)c2ccccc12 [TCMDC-142217]  103%
81. Cc1cc(N/N=C/c2ccc([N+](=O)[O-])cc2)c2ccc(F)cc2n1 [TCMDC-142170]  105%
82. CCOc1ccc2c(NN=Cc3ccc(F)cc3)cc(C)nc2c1 [TCMDC-142201]  105%
83. CCOc1ccc2c(NN=Cc3c4ccccc4cc4ccccc34)cc(C)nc2c1 [TCMDC-142209]  106%
84. Cc1cc(N/N=C/c2cccc([N+](=O)[O-])c2)c2ccc(F)cc2n1 [TCMDC-142169]  109%
85. CCOc1ccc2c(N/N=C/c3cccc([N+](=O)[O-])c3)cc(C)nc2c1 [TCMDC-142195]  115%

same assay, conditions: Plasmodium falciparum, 48 h; read-out: % Inhibition

In order of falling inhibition at 5 µM:
1. CCCCCC(C)C(C)c1cc(O)c2c(c1)OC1(C(C)C)CC(O)C(C)C2C1 (stereo not drawn) [TCMDC-142232]  44.6%
2. CCCCCC(C)C(C)c1cc(O)c2c(c1)OC(C)(C)c1cnccc1-2 (stereo not drawn) [TCMDC-142188]  -17.5%
